From ChEMBL document CHEMBL3797079, “Synergistic reduction of HIV-1 infectivity by 5-azacytidine and inhibitors of ribonucleotide reductase” (Bioorg Med Chem, 2016)
Active and inactive are the calls of the source. The calls are words filed in the database; no cut-off is given here.

How the values were obtained:
[1] = tested on: Human immunodeficiency virus 1; assay: Antiviral activity against VSV-G pseudotyped HIV-1 NL4-3 infected in human U373-MAGI cells assessed as increase in frequency of G to C transversion at 260 uM incubated for 2 hrs prior to infection measured at 72 hrs post infection by illumina sequencing method relative to control; type: functional
[2] = tested on: Human immunodeficiency virus 1; assay: Antiviral activity against VSV-G pseudotyped HIV-1 NL4-3 infected in human U373-MAGI cells assessed as increase in frequency of C to G transversion at 260 uM incubated for 2 hrs prior to infection measured at 72 hrs post infection by illumina sequencing method relative to control; type: functional
[3] = Reduction in dCTP level in human U373-MAGI cells at EC75 after 4 hrs by LC-MS/MS analysis relative to control; type: functional; design: scale not given: the % may be the effect or the level left
[4] = tested on: Human immunodeficiency virus 1; assay: Antiviral activity against VSV-G pseudotyped HIV-1 NL4-3 infected in human U373-MAGI cells assessed as increase in mutation frequency at 260 uM incubated for 2 hrs prior to infection measured at 72 hrs post infection by illumina sequencing method; type: functional
[5] = tested on: Human immunodeficiency virus 1; assay: Antiviral activity against VSV-G pseudotyped HIV-1 NL4-3 infected in human U373-MAGI cells assessed as G to C transversion at 260 uM incubated for 2 hrs prior to infection measured at 72 hrs post infection by illumina sequencing method relative to control; type: functional
[6] = tested on: Human immunodeficiency virus 1; assay: Antiviral activity against VSV-G pseudotyped HIV-1 NL4-3 infected in human U373-MAGI cells assessed as reduction in gag level at 25 to 400 uM after 2 to 72 hrs by qPCR method; type: functional, organism-based
[7] = tested on: Human immunodeficiency virus 1; assay: Antiviral activity against VSV-G pseudotyped HIV-1 NL4-3 infected in human U373-MAGI cells assessed as reduction in U5-gag level at 25 to 400 uM after 2 to 72 hrs by qPCR method; type: functional, organism-based
[8] = tested on: Human immunodeficiency virus 1; assay: Antiviral activity against VSV-G pseudotyped HIV-1 NL4-3 infected in human U373-MAGI cells assessed as Gag mutation at 260 uM incubated for 2 hrs prior to infection measured at 72 hrs post infection by illumina sequencing method (reference value: 18.4%); type: functional
[9] = tested on: Human immunodeficiency virus 1; assay: Antiviral activity against VSV-G pseudotyped HIV-1 NL4-3 infected in human U373-MAGI cells assessed as Pol mutation at 260 uM incubated for 2 hrs prior to infection measured at 72 hrs post infection by illumina sequencing method (reference value: 18.5%); type: functional
[10] = tested on: Human immunodeficiency virus 1; assay: Antiviral activity against VSV-G pseudotyped HIV-1 NL4-3 infected in human U373-MAGI cells assessed as Vif mutation at 260 uM incubated for 2 hrs prior to infection measured at 72 hrs post infection by illumina sequencing method (reference value: 19.2%); type: functional
[11] = tested on: Human immunodeficiency virus 1; assay: Antiviral activity against VSV-G pseudotyped HIV-1 NL4-3 infected in human U373-MAGI cells assessed as Env mutation at 260 uM incubated for 2 hrs prior to infection measured at 72 hrs post infection by illumina sequencing method (reference value: 21.4%); type: functional
[12] = tested on: Human immunodeficiency virus 1; assay: Antiviral activity against VSV-G pseudotyped HIV-1 NL4-3 infected in human U373-MAGI cells assessed as Nef mutation at 260 uM incubated for 2 hrs prior to infection measured at 72 hrs post infection by illumina sequencing method (reference value: 22.6%); type: functional
[13] = tested on: Human immunodeficiency virus 1; assay: Antiviral activity against VSV-G pseudotyped HIV-1 NL4-3 infected in human U373-MAGI cells assessed as C to G transversion at 260 uM incubated for 2 hrs prior to infection measured at 72 hrs post infection by illumina sequencing method relative to control; type: functional
[14] = tested on: Human immunodeficiency virus 1; assay: Antiviral activity against VSV-G pseudotyped HIV-1 NL4-3 infected in human U373-MAGI cells assessed as reduction in gag level at 0.25 to 8 uM after 2 to 72 hrs by qPCR method; type: functional, organism-based
[15] = tested on: Human immunodeficiency virus 1; assay: Antiviral activity against VSV-G pseudotyped HIV-1 NL4-3 infected in human U373-MAGI cells assessed as Gag mutation at 3.8 uM incubated for 2 hrs prior to infection measured at 72 hrs post infection by illumina sequencing method (reference value: 18.4%); type: functional
[16] = tested on: Human immunodeficiency virus 1; assay: Antiviral activity against VSV-G pseudotyped HIV-1 NL4-3 infected in human U373-MAGI cells assessed as Pol mutation at 3.8 uM incubated for 2 hrs prior to infection measured at 72 hrs post infection by illumina sequencing method (reference value: 18.5%); type: functional
[17] = tested on: Human immunodeficiency virus 1; assay: Antiviral activity against VSV-G pseudotyped HIV-1 NL4-3 infected in human U373-MAGI cells assessed as Vif mutation at 3.8 uM incubated for 2 hrs prior to infection measured at 72 hrs post infection by illumina sequencing method (reference value: 19.2%); type: functional
[18] = tested on: Human immunodeficiency virus 1; assay: Antiviral activity against VSV-G pseudotyped HIV-1 NL4-3 infected in human U373-MAGI cells assessed as Env mutation at 3.8 uM incubated for 2 hrs prior to infection measured at 72 hrs post infection by illumina sequencing method (reference value: 21.4%); type: functional
[19] = tested on: Human immunodeficiency virus 1; assay: Antiviral activity against VSV-G pseudotyped HIV-1 NL4-3 infected in human U373-MAGI cells assessed as Nef mutation at 3.8 uM incubated for 2 hrs prior to infection measured at 72 hrs post infection by illumina sequencing method (reference value: 22.6%); type: functional
[20] = tested on: Human immunodeficiency virus 1; assay: Antiviral activity against VSV-G pseudotyped HIV-1 NL4-3 infected in human U373-MAGI cells assessed as reduction in U5-gag level at 0.25 to 8 uM after 2 to 72 hrs by qPCR method; type: functional, organism-based
U373-MAGI [21] = assay: Effect on dRGU-TP level in human U373-MAGI cells at 0.5 mM preincubated for 2 hrs followed by 5-aza-dC addition measured after 4 hrs by LC-MS/MS analysis; type: functional, cell-based
U373-MAGI [22] = assay: Effect on dRGU-TP level in human U373-MAGI cells at 2 mM preincubated for 2 hrs followed by 5-aza-dC addition measured after 4 hrs by LC-MS/MS analysis; type: functional, cell-based
U373-MAGI [23] = assay: Reduction in dCTP level in human U373-MAGI cells at 0.5 mM preincubated for 2 hrs followed by 5-aza-dC addition measured after 4 hrs by LC-MS/MS analysis relative to 5-aza-dC; type: functional, cell-based
U373-MAGI [24] = assay: Reduction in dCTP level in human U373-MAGI cells at 2 mM preincubated for 2 hrs followed by 5-aza-dC addition measured after 4 hrs by LC-MS/MS analysis relative to 5-aza-dC; type: functional, cell-based
U373-MAGI [25] = assay: Increase in 5-aza-dCTP/dCTP ratio in human U373-MAGI cells at 2 mM preincubated for 2 hrs followed by 5-aza-C addition measured after 4 hrs by LC-MS/MS analysis relative to 5-aza-C; type: functional, cell-based
U373-MAGI [26] = assay: Reduction in dCTP level in human U373-MAGI cells at 0.5 mM after 6 hrs by LC-MS/MS analysis; type: functional, cell-based
U373-MAGI [27] = assay: Reduction in dCTP level in human U373-MAGI cells at 2 mM after 6 hrs by LC-MS/MS analysis; type: functional, cell-based
U373-MAGI [28] = assay: Increase in 5-aza-dCTP/dCTP ratio in human U373-MAGI cells at 0.5 mM preincubated for 2 hrs followed by 5-aza-C addition measured after 4 hrs by LC-MS/MS analysis relative to 5-aza-C; type: functional, cell-based
U373-MAGI [29] = assay: Reduction in dATP level in human U373-MAGI cells at 0.5 mM after 6 hrs by LC-MS/MS analysis; type: functional, cell-based
U373-MAGI [30] = assay: Reduction in dATP level in human U373-MAGI cells at 2 mM after 6 hrs by LC-MS/MS analysis; type: functional, cell-based
U373-MAGI [31] = assay: Effect on 5-aza-dCTP level in human U373-MAGI cells at 0.5 mM preincubated for 2 hrs followed by 5-aza-dC addition measured after 4 hrs by LC-MS/MS analysis; type: functional, cell-based
U373-MAGI [32] = assay: Effect on 5-aza-dCTP level in human U373-MAGI cells at 2 mM preincubated for 2 hrs followed by 5-aza-dC addition measured after 4 hrs by LC-MS/MS analysis; type: functional, cell-based
U373-MAGI [33] = assay: Reduction in dCTP level in human U373-MAGI cells at 0.5 mM preincubated for 2 hrs followed by 5-aza-C addition measured after 4 hrs by LC-MS/MS analysis; type: functional, cell-based
U373-MAGI [34] = assay: Reduction in dCTP level in human U373-MAGI cells at 2 mM preincubated for 2 hrs followed by 5-aza-C addition measured after 4 hrs by LC-MS/MS analysis relative to 5-aza-C; type: functional, cell-based
U373-MAGI [35] = assay: Reduction in dRGU-TP level in human U373-MAGI cells at 0.5 mM preincubated for 2 hrs followed by 5-aza-C addition measured after 4 hrs by LC-MS/MS analysis; type: functional, cell-based
U373-MAGI [36] = assay: Reduction in dRGU-TP level in human U373-MAGI cells at 2 mM preincubated for 2 hrs followed by 5-aza-C addition measured after 4 hrs by LC-MS/MS analysis; type: functional, cell-based
U373-MAGI [37] = assay: Increase in 5-aza-dCTP/dCTP ratio in human U373-MAGI cells at 0.5 mM preincubated for 2 hrs followed by 5-aza-dC addition measured after 4 hrs by LC-MS/MS analysis relative to 5-aza-dC; type: functional, cell-based
U373-MAGI [38] = assay: Increase in 5-aza-dCTP/dCTP ratio in human U373-MAGI cells at 2 mM preincubated for 2 hrs followed by 5-aza-dC addition measured after 4 hrs by LC-MS/MS analysis relative to 5-aza-dC; type: functional, cell-based
[39] = tested on: Human immunodeficiency virus 1; assay: Potentiation of 5-Aza-C-induced antiviral activity against VSV-G pseudotyped HIV-1 NL4-3 infected in human U373-MAGI cells assessed as decrease in 5-Aza-C EC50 at 500 uM preincubated for 2 hrs followed by 5-Aza-C addition for 2 hrs and subsequent viral infection measured at 72 hrs post infection by flow cytometric analysis relative to control; type: functional
[40] = tested on: Human immunodeficiency virus 1; assay: Antiviral activity against VSV-G pseudotyped HIV-1 NL4-3 infected in human U373-MAGI cells assessed as reduction in viral infectivity at 500 uM incubated for 4 hrs prior to viral infection measured at 72 hrs post infection by flow cytometric analysis; type: functional, organism-based
[41] = Cytotoxicity against human U373-MAGI cells at 500 uM measured at 72 hrs by Celltiter-Glo luminescent cell viability assay; type: cell-based
U373-MAGI [42] = assay: Reduction in 5-aza-dCTP level in human U373-MAGI cells at 0.5 mM preincubated for 2 hrs followed by 5-aza-C addition measured after 4 hrs by LC-MS/MS analysis; type: functional, cell-based
U373-MAGI [43] = assay: Reduction in dTTP level in human U373-MAGI cells at 0.5 mM after 6 hrs by LC-MS/MS analysis; type: functional, cell-based
U373-MAGI [44] = assay: Reduction in dTTP level in human U373-MAGI cells at 2 mM after 6 hrs by LC-MS/MS analysis; type: functional, cell-based
U373-MAGI [45] = assay: Reduction in dGTP level in human U373-MAGI cells at 0.5 mM after 6 hrs by LC-MS/MS analysis; type: functional, cell-based
U373-MAGI [46] = assay: Reduction in dGTP level in human U373-MAGI cells at 2 mM after 6 hrs by LC-MS/MS analysis; type: functional, cell-based
U373-MAGI [47] = assay: Reduction in 5-aza-dCTP level in human U373-MAGI cells at 2 mM preincubated for 2 hrs followed by 5-aza-C addition measured after 4 hrs by LC-MS/MS analysis; type: functional, cell-based

SMILES: Nc1ncn([C@@H]2O[C@H](CO)[C@@H](O)[C@H]2O)c(=O)n1 [AZACITIDINE]
- fold change (FC) [1]: 67
- fold change (FC) [2]: 43
- Activity [3]: 50%
- fold change (FC) [4]: 6.8
- Activity [5]: 60%
- Activity [6]: Active
- Activity [7]: Active
- Activity [8]: 17%
- Activity [9]: 25.8%
- Activity [10]: 12.8%
- Activity [11]: 19.1%
- Activity [12]: 25.4%
- Activity [13]: 10%

SMILES: Nc1ncn([C@H]2C[C@H](O)[C@@H](CO)O2)c(=O)n1 [DECITABINE]
- Activity [3]: 50%
- Activity [14]: Active
- Activity [15]: 16%
- Activity [16]: 26%
- Activity [17]: 15.9%
- Activity [18]: 20.5%
- Activity [19]: 21.5%
- Activity [20]: Active

SMILES: NC(=O)NO [HYDROXYUREA]
- Activity (U373-MAGI [21]): inactive
- Activity (U373-MAGI [22]): inactive
- Activity (U373-MAGI [23]): Active
- Activity (U373-MAGI [24]): Active
- Activity (U373-MAGI [25]): inactive
- Activity (U373-MAGI [26]): inactive
- Activity (U373-MAGI [27]): inactive
- Activity (U373-MAGI [28]): Active
- Activity (U373-MAGI [29]): inactive
- Activity (U373-MAGI [30]): Active
- Activity (U373-MAGI [31]): inactive
- Activity (U373-MAGI [32]): inactive
- Activity (U373-MAGI [33]): Active
- Activity (U373-MAGI [34]): Active
- Activity (U373-MAGI [35]): inactive
- Activity (U373-MAGI [36]): inactive
- Activity (U373-MAGI [37]): Active
- Activity (U373-MAGI [38]): Active
- fold change (FC) [39]: 2.5
- Activity [40]: Active
- Activity [41]: Non-toxic
- Activity (U373-MAGI [42]): inactive
- Activity (U373-MAGI [43]): inactive
- Activity (U373-MAGI [44]): inactive
- Activity (U373-MAGI [45]): inactive
- Activity (U373-MAGI [46]): inactive
- Activity (U373-MAGI [47]): inactive
